# Literature values in US20060134300A1, “Nutritional supplement for caffeine-containing beverages” (priority 2004, published 2006).
# Tests used:
# [1] = tested on: adrenaline and noradrenaline; conditions: triple dose of caffeine
# rats = conditions: rat, in vivo
# [2] = tested on: sympathetic nervous system; conditions: intraventricular administration
# [3] = dose of 150 mg/kg, extended wakefulness
# [4] = tested on: subjects put under stress; conditions: 100 mg/kg, within an hour of ingesting
smiles,measurement,setting,value
"Cn1c(=O)c2c(ncn2C)n(C)c1=O [caffeine, 1,3,7-trimethylxanthine]",catecholamines (adrenaline and noradrenaline),[1],significantly increased
"NCCS(=O)(=O)O [taurine, 2-aminoethanesulfonic acid]",LD 50,rats,"greater than 5,000 mg/kg"
same,sympathetic nerve activity,[2],inhibited sympathetic nerve activity
N[C@@H](Cc1ccc(O)cc1)C(=O)O [tyrosine],lapse probability on a high-event-rate vigilance task,[3],significant reduction
same,performance decline on a psychomotor task,[3],significant amelioration
same,cognitive performance,[4],improved their cognitive performance
